What was measured:
[1] = biological target: T1, Cathepsin K (Homo sapiens, UniProt P43235); test: Inhibitory potency against human Cathepsin K
T1 sequence (P43235 whole entry): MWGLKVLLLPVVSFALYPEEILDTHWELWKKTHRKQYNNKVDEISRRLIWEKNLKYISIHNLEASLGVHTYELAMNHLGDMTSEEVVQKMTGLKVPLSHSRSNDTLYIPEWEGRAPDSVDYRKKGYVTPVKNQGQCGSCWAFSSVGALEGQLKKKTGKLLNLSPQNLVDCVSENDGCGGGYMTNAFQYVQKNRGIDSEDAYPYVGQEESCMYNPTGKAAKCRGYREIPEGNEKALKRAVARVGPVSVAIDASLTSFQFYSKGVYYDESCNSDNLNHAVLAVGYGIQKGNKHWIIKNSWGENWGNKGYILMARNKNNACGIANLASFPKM

[2] = biological target: Cathepsin (L and K) (Homo sapiens) (UniProt P43235+P07711); test: Selectivity for human cathepsin L over human cathepsin K; assay type: protein assay
[3] = biological target: Cathepsin (H and K) (Homo sapiens) (UniProt P09668+P43235); test: Selectivity for human cathepsin H over human cathepsin K; assay type: protein assay
[4] = biological target: Cathepsin (S and K) (Homo sapiens) (UniProt P25774+P43235); test: Selectivity for human cathepsin S over human cathepsin K; assay type: protein assay
[5] = biological target: Cathepsin (V and K) (Homo sapiens) (UniProt P43235+O60911); test: Selectivity for human cathepsin V over human cathepsin K; assay type: protein assay
[6] = biological target: Cathepsin (B and K) (Homo sapiens) (UniProt P43235+P07858); test: Selectivity for human cathepsin B over human cathepsin K; assay type: protein assay

Cathepsin (S and K) (Homo sapiens), sequence (P25774 whole entry, looked up, one chain of several): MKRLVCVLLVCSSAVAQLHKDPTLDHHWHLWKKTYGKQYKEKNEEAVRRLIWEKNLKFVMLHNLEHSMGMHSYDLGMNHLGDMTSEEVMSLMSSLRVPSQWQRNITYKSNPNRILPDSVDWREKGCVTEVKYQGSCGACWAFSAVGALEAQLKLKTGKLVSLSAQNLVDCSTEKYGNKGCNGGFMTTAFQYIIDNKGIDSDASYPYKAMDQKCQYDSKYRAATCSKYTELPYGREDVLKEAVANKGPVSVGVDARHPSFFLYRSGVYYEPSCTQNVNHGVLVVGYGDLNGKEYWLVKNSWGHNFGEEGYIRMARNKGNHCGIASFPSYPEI
Cathepsin (V and K) (Homo sapiens), sequence (O60911 whole entry, looked up, one chain of several): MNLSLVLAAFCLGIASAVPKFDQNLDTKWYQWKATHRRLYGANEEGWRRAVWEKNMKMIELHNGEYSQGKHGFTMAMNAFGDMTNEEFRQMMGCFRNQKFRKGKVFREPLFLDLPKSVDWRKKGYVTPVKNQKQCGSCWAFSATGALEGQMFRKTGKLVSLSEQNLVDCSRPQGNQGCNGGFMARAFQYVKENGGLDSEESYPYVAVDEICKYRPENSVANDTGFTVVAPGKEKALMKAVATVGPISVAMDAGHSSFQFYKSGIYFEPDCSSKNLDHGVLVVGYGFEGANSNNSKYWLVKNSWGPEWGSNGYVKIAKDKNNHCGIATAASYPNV
Cathepsin (L and K) (Homo sapiens), sequence (P07711 whole entry, looked up, one chain of several): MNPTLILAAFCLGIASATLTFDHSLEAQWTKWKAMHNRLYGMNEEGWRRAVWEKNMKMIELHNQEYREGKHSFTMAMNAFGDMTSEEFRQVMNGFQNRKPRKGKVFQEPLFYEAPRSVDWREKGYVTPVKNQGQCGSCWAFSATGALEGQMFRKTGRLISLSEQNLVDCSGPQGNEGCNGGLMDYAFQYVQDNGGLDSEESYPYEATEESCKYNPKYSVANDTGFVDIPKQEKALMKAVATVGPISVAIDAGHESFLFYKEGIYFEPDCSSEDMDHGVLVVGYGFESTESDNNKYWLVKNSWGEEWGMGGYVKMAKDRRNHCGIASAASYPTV
Cathepsin (H and K) (Homo sapiens), sequence (P09668 whole entry, looked up, one chain of several): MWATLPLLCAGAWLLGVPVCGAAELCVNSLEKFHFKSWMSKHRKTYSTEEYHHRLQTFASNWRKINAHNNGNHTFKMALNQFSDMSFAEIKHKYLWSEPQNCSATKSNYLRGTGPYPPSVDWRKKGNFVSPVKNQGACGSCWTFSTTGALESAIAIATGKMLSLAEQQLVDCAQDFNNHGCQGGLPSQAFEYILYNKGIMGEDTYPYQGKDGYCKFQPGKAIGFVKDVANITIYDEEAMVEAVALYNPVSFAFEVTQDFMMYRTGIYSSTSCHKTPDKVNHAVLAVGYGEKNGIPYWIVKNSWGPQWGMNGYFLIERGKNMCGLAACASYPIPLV

With `CCCC[C@H](NC(=O)OCC1(CC)CCC1)C(=O)C(=O)Nc1ccnn1CC1CC1` the IC50 [1] was 51 nM, the Selectivity [2] was > 250 and the Selectivity [3] was > 250. For the same compound, the Selectivity [4] was 33, the Selectivity [5] was 102 and the Selectivity [6] was > 250.
With `CCCC[C@H](NC(=O)OCC1(CC)CCC1)C(=O)C(=O)Nc1ccnn1C1CCC1` the IC50 [1] was 45 nM, the Selectivity [2] was 270 and the Selectivity [3] was > 280. For the same compound, the Selectivity [4] was 14, the Selectivity [5] was 49 and the Selectivity [6] was > 280.
Work on `CCCC[C@H](NC(=O)OCC1(CC)CCC1)C(=O)C(=O)Nc1ccon1` yielded an IC50 [1] of 20 nM.
For `CCCC[C@H](NC(=O)OCC1(CC)CCC1)C(=O)C(=O)Nc1ccnn1CC(C)C`, the IC50 [1] was 76 nM, the Selectivity [2] was > 170 and the Selectivity [3] was > 170. The Selectivity [4] was 14, the Selectivity [5] was 89 and the Selectivity [6] was > 170.
In the case of `CCCC[C@H](NC(=O)OCC1(CC)COC1)C(=O)C(=O)Nc1cc(-c2ccccc2)n[nH]1`, the IC50 [1] is reported as 10 nM.
`CCCC[C@H](NC(=O)OCC1(CC)COC1)C(=O)C(=O)N[C@H](C)c1ccccc1` gave an IC50 [1] of 68 nM.
